The values that follow come from patent US20260191968A1, “PROTAC DEGRADERS OF MLLT1 AND/OR MLLT3” (DARK BLUE THERAPEUTICS LTD, priority 2024, published 2026).

One assay deals with T1, MLLT1 (Homo sapiens, UniProt Q03111).
T1 construct: host or cells: MV4-11
T1 sequence (Q03111 1-559): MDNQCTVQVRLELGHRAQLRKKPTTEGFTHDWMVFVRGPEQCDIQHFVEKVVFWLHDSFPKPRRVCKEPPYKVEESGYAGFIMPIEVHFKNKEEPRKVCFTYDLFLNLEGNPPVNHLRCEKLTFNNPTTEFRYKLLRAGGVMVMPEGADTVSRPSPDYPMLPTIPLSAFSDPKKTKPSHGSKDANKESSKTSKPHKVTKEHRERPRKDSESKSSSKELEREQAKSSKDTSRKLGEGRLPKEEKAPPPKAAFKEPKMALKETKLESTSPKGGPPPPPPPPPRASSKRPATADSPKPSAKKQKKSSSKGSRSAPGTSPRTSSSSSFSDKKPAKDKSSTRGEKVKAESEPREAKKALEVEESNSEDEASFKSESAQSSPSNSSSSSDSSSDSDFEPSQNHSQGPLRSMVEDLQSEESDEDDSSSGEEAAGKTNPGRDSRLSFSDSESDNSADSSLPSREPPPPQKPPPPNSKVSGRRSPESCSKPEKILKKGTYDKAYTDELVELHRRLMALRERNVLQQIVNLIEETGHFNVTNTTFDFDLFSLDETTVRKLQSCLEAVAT
Briefly: MLLT1 degradation assay in MV4-11 cells (JESS chemiluminescent detection), three concentrations, 24 h. The class given is cell-based. The following applies: with respect to DMSO control. The essentials:
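Read-out is % MLLT1 degradation versus DMSO, from band peak areas on a JESS chemiluminescent system. Cells (MV4-11) were exposed for 24 h at 37° C to three compound levels, 10, 100 and 1000 nM, in 0.1% DMSO.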

A further assay concerns MV4-11 cells. Put plainly: MV4-11 cellular proliferative assay, Assay Format B (CTG 2.0, 168 h). The class given is cell-based. The following applies: Homo sapiens, 168 h (7 days), CTG 2.0, read-out: IC50 (MV4-11 cellular proliferative assay, Assay format B). The essentials: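 Viability read by CellTiter-Glo 2.0 luminescence after 7-day (168 h) compound exposure of MV4-11 cells in IMDM/10% FBS. Ten 3-fold concentrations starting at 1 uM or 100 nM, 0.3% final DMSO; curves normalised to DMSO control, four-parameter fit.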

pIC50: −log10 of the molar value.

Take `CN1CCC[C@@H]1c1cc2cnc(NC(=O)c3ccc(N4CCC(OC5CCN(c6cccc7c6CN(C6CCC(=O)NC6=O)C7=O)CC5)CC4)cc3)cc2[nH]1` (stereo partly drawn) [Example 137, 4-(4-((1-(2-(2,6-dioxopiperidin-3-yl)-1-oxoisoindolin-4-yl)piperidin-4-yl)oxy)piperidin-1-yl)-N-(2-((R)-1-methylpyrrolidin-2-yl)-1H-pyrrolo[3,2-c]pyridin-6-yl)benzamide]: on MLLT1, the “MLLT1% Degradation @ 0.01 μM” value is on record as “A (Category A: A ≥ 75% degradation)”, the “MLLT1% Degradation @ 0.1 μM” value was “A (Category A: A ≥ 75% degradation)” and the “MLLT1% Degradation @ 1 μM” value is given as “A (Category A: A ≥ 75% degradation)”. Also, in the assay on MV4-11 cells, the pIC50 (usually −log10 of the IC50, conventionally taken in molar units) was no less than 7.00.
In the case of `CN1CCC[C@@H]1c1cc2cnc(NC(=O)c3cccc(CCCC#Cc4cccc5c4CN(C4CCC(=O)NC4=O)C5=O)c3)cc2[nH]1` (stereo partly drawn) [Example 95, 3-(5-(2-(2,6-dioxopiperidin-3-yl)-1-oxoisoindolin-4-yl)pent-4-yn-1-yl)-N-(2-((R)-1-methylpyrrolidin-2-yl)-1H-pyrrolo[3,2-c]pyridin-6-yl)benzamide], at MLLT1, the “MLLT1% Degradation @ 0.01 μM” value is “A (Category A: A ≥ 75% degradation)”, the “MLLT1% Degradation @ 0.1 μM” value is “A (Category A: A ≥ 75% degradation)” and the “MLLT1% Degradation @ 1 μM” value is reported as “A (Category A: A ≥ 75% degradation)”. Besides, in the assay with MV4-11 cells, the pIC50 was no less than 7.00.
On to `CN1CCC[C@@H]1c1cc2cnc(NC(=O)c3ccc(CCCC4CCN(c5cccc6c5CN(C5CCC(=O)NC5=O)C6=O)CC4)cc3F)cc2[nH]1` (mixture of isomers) [Example 174, 4-(3-(1-(2-(2,6-dioxopiperidin-3-yl)-1-oxoisoindolin-4-yl)piperidin-4-yl)propyl)-2-fluoro-N-(2-((R)-1-methylpyrrolidin-2-yl)-1H-pyrrolo[3,2-c]pyridin-6-yl)benzamide], for which, at MLLT1, the “MLLT1% Degradation @ 0.01 μM” value was “A (Category A: A ≥ 75% degradation)”, the “MLLT1% Degradation @ 0.1 μM” value is given as “A (Category A: A ≥ 75% degradation)” and the “MLLT1% Degradation @ 1 μM” value is reported as “A (Category A: A ≥ 75% degradation)”. In addition, in the assay on MV4-11 cells, the pIC50 was no less than 7.00.
As for `CN1CCC[C@@H]1c1cc2cnc(NC(=O)c3ccc(N4CCC(CCN5CCN(c6cccc7c6CN(C6CCC(=O)NC6=O)C7=O)CC5)CC4)nc3)cc2[nH]1` (stereo partly drawn) [Example 138, 6-(4-(2-(4-(2-(2,6-dioxopiperidin-3-yl)-1-oxoisoindolin-4-yl)piperazin-1-yl)ethyl)piperidin-1-yl)-N-(2-((R)-1-methylpyrrolidin-2-yl)-1H-pyrrolo[3,2-c]pyridin-6-yl)nicotinamide], at MLLT1, the “MLLT1% Degradation @ 0.01 μM” value is given as “A (Category A: A ≥ 75% degradation)”, the “MLLT1% Degradation @ 0.1 μM” value is reported as “A (Category A: A ≥ 75% degradation)” and the “MLLT1% Degradation @ 1 μM” value was “A (Category A: A ≥ 75% degradation)”. Besides, the pIC50 in the assay on MV4-11 cells was no less than 7.00.
Take `CN1CCC[C@@H]1c1cc2cnc(NC(=O)c3ccc(CN4CCN(CC5CCN(c6cccc7c6CN(C6CCC(=O)NC6=O)C7=O)CC5)CC4)cc3)cc2[nH]1` (stereo partly drawn) [Example 194, 4-((4-((1-(2-(2,6-dioxopiperidin-3-yl)-1-oxoisoindolin-4-yl)piperidin-4-yl)methyl)piperazin-1-yl)methyl)-N-(2-((R)-1-methylpyrrolidin-2-yl)-1H-pyrrolo[3,2-c]pyridin-6-yl)benzamide]: at MLLT1, the “MLLT1% Degradation @ 0.01 μM” value is “B (Category B: 50% ≤ B < 75% degradation)”, the “MLLT1% Degradation @ 0.1 μM” value is listed as “A (Category A: A ≥ 75% degradation)” and the “MLLT1% Degradation @ 1 μM” value is given as “A (Category A: A ≥ 75% degradation)”. Further, the pIC50 with MV4-11 cells was no less than 7.00.
For `CN1CCC[C@@H]1c1cc2cnc(NC(=O)c3ccc(N4CCC(C#Cc5cccc6c5CN(C5CCC(=O)NC5=O)C6=O)CC4)nc3)cc2[nH]1` (stereo partly drawn) [Example 17, 6-(4-((2-(2,6-dioxopiperidin-3-yl)-1-oxoisoindolin-4-yl)ethynyl)piperidin-1-yl)-N-(2-((R)-1-methylpyrrolidin-2-yl)-1H-pyrrolo[3,2-c]pyridin-6-yl)nicotinamide], at MLLT1, the “MLLT1% Degradation @ 0.01 μM” value is given as “A (Category A: A ≥ 75% degradation)”, the “MLLT1% Degradation @ 0.1 μM” value is “A (Category A: A ≥ 75% degradation)” and the “MLLT1% Degradation @ 1 μM” value is “A (Category A: A ≥ 75% degradation)”. In the assay on MV4-11 cells, the pIC50 is no less than 7.00.
Consider `COc1cc(CCCCC#Cc2cccc3c2CN(C2CCC(=O)NC2=O)C3=O)ccc1C(=O)Nc1cc2[nH]c([C@H]3CCCN3C)cc2cn1` (stereo partly drawn) [Example 115, 4-(6-(2-(2,6-dioxopiperidin-3-yl)-1-oxoisoindolin-4-yl)hex-5-yn-1-yl)-2-methoxy-N-(2-((R)-1-methylpyrrolidin-2-yl)-1H-pyrrolo[3,2-c]pyridin-6-yl)benzamide], for which, at MLLT1, the “MLLT1% Degradation @ 0.01 μM” value is on record as “A (Category A: A ≥ 75% degradation)”, the “MLLT1% Degradation @ 0.1 μM” value is “A (Category A: A ≥ 75% degradation)” and the “MLLT1% Degradation @ 1 μM” value is listed as “A (Category A: A ≥ 75% degradation)”. In addition, the pIC50 with MV4-11 cells is no less than 7.00.
`CN1CCC[C@@H]1c1cc2cnc(NC(=O)c3ccc(C4CCN(CC5CCN(c6cccc7c6CN(C6CCC(=O)NC6=O)C7=O)CC5)CC4)nc3)cc2[nH]1` (stereo partly drawn) [Example 119, 6-(1-((1-(2-(2,6-dioxopiperidin-3-yl)-1-oxoisoindolin-4-yl)piperidin-4-yl)methyl)piperidin-4-yl)-N-(2-((R)-1-methylpyrrolidin-2-yl)-1H-pyrrolo[3,2-c]pyridin-6-yl)nicotinamide]: at MLLT1, the “MLLT1% Degradation @ 0.01 μM” value is recorded as “B (Category B: 50% ≤ B < 75% degradation)”, the “MLLT1% Degradation @ 0.1 μM” value was “A (Category A: A ≥ 75% degradation)” and the “MLLT1% Degradation @ 1 μM” value is given as “A (Category A: A ≥ 75% degradation)”. Besides, the pIC50 in the assay on MV4-11 cells is no less than 7.00.
In the case of `CN1CCC[C@@H]1c1cc2cnc(NC(=O)c3ccc(N4CCC(OCc5ccc(-c6cccc7c6CN(C6CCC(=O)NC6=O)C7=O)cc5)CC4)cc3)cc2[nH]1` (stereo partly drawn) [Example 85, 4-(4-((4-(2-(2,6-dioxopiperidin-3-yl)-1-oxoisoindolin-4-yl)benzyl)oxy)piperidin-1-yl)-N-(2-((R)-1-methylpyrrolidin-2-yl)-1H-pyrrolo[3,2-c]pyridin-6-yl)benzamide], at MLLT1, the “MLLT1% Degradation @ 0.01 μM” value is listed as “C (Category C: 25% ≤ C < 50% degradation)”, the “MLLT1% Degradation @ 0.1 μM” value was “A (Category A: A ≥ 75% degradation)” and the “MLLT1% Degradation @ 1 μM” value is given as “B (Category B: 50% ≤ B < 75% degradation)”. For the same molecule, in the assay with MV4-11 cells, the pIC50 was no less than 7.00.
Taken in the same sequence, the figures for `CN1CCC[C@@H]1c1cc2cnc(NC(=O)c3ccc(CCCC4CCN(c5cccc6c5CN([C@H]5CCC(=O)NC5=O)C6=O)CC4)cc3F)cc2[nH]1` (relative stereo) [Example 175, 4-(3-(1-(2-((rel-S)-2,6-dioxopiperidin-3-yl)-1-oxoisoindolin-4-yl)piperidin-4-yl)propyl)-2-fluoro-N-(2-((R)-1-methylpyrrolidin-2-yl)-1H-pyrrolo[3,2-c]pyridin-6-yl)benzamide] were “A (Category A: A ≥ 75% degradation)”, “A (Category A: A ≥ 75% degradation)”, “A (Category A: A ≥ 75% degradation)” and no less than 7.00.
The corresponding values for `CN1CCC[C@@H]1c1cc2cnc(NC(=O)c3ccc(-c4cnn(CCCC5CCN(c6cccc7c6CN(C6CCC(=O)NC6=O)C7=O)CC5)c4)cc3F)cc2[nH]1` (stereo partly drawn) [Example 212, 4-(1-(3-(1-(2-(2,6-dioxopiperidin-3-yl)-1-oxoisoindolin-4-yl)piperidin-4-yl)propyl)-1H-pyrazol-4-yl)-2-fluoro-N-(2-((R)-1-methylpyrrolidin-2-yl)-1H-pyrrolo[3,2-c]pyridin-6-yl)benzamide] are “A (Category A: A ≥ 75% degradation)”, “A (Category A: A ≥ 75% degradation)”, “A (Category A: A ≥ 75% degradation)” and no less than 7.00.
Turning to `CN1CCC[C@@H]1c1cc2cnc(NC(=O)c3cnc(N4CCC(C#Cc5cccc6c5CN(C5CCC(=O)NC5=O)C6=O)CC4)cn3)cc2[nH]1` (stereo partly drawn) [Example 186, 5-(4-((2-(2,6-dioxopiperidin-3-yl)-1-oxoisoindolin-4-yl)ethynyl)piperidin-1-yl)-N-(2-((R)-1-methylpyrrolidin-2-yl)-1H-pyrrolo[3,2-c]pyridin-6-yl)pyrazine-2-carboxamide], at MLLT1, the “MLLT1% Degradation @ 0.01 μM” value is “B (Category B: 50% ≤ B < 75% degradation)”, the “MLLT1% Degradation @ 0.1 μM” value is listed as “A (Category A: A ≥ 75% degradation)” and the “MLLT1% Degradation @ 1 μM” value is “B (Category B: 50% ≤ B < 75% degradation)”. In the assay with MV4-11 cells, the pIC50 was no less than 7.00.
